Results taken from patent US20100144749A1, “TREATMENT OF CANCERS WITH ACQUIRED RESISTANCE TO KIT INHIBITORS” (priority 2005, published 2010).

Key:
Assay type in all cases: cell-based, murine
[1] = test system: Ba/F3 cells expressing human c-KIT with exon 11 deletion of residues 557-558; experiment: Cell proliferation assay (CellTiter-Glo), Ba/F3 c-KIT exon 11 deletion mutant; details: BaF3; Ba/F3, c-KIT exon 11 del 557-558; 72 h; dose range 0.6 to 10,000 nM; mean of at least three experiments; read-out: IC50 of cell proliferation inhibition, Exon 11 (WT)
Experimental: (§1) All mutations were confirmed by DNA sequencing.
(§2) Selective pressure was applied to the transfected cells by removing IL-3 from the culture medium. After IL-independent populations, further selective pressure was applied by also growing the cells in the presence of 1 mg/mL G418. […] The stable pools were further characterized by sequencing genomic DNA to confirm the presence of the transfected c-KIT cDNA.
(§3) This assay utilizes cellular ATP as a marker for cell proliferation/viability. […] Plates were then incubated in a 5% CO2 incubator at 37° C. for 3 days. After 72 h, 100 microliters of lysis/luciferase reagent (CellTiter-Glo, Promega G7573) was added to each well. The cells were then incubated on a shaker for 5 minutes at room temperature, and luminescence was measured on a Victor 5 (Perkin Elmer) spectrophotometer. Growth inhibition was measured by comparing luminescence signal from treated vs. untreated cells in assay plates, and the IC50 analysis of cell proliferation inhibition by compounds was analyzed using Analyze 5 in-house software. […] The IC50 values are mean values calculated from at least three experiments.

[2] = test system: Ba/F3 cells expressing c-KIT Exon 11/V654A Gleevec-resistant double mutant; experiment: Cell proliferation assay (CellTiter-Glo), Ba/F3 c-KIT exon 11/V654A; details: Mus musculus, BaF3, 72 h, dose range 0.6 to 10,000 nM, mean of at least three experiments, read-out: IC50 of cell proliferation inhibition, Exon 11/Gleevec-resistant Double Mutant V654A
Experimental: as §1, §2, §3

[3] = test system: Ba/F3 cells expressing c-KIT Exon 11/D816G Gleevec-resistant double mutant; experiment: Cell proliferation assay (CellTiter-Glo), Ba/F3 c-KIT exon 11/D816G; details: Mus musculus, BaF3, 72 h, dose range 0.6 to 10,000 nM, mean of at least three experiments, read-out: IC50 of cell proliferation inhibition, Exon 11/Gleevec-resistant Double Mutant D816G
Experimental: as §1, §2, §3

[4] = test system: Ba/F3 cells expressing c-KIT Exon 11/N822K Gleevec-resistant double mutant; experiment: Cell proliferation assay (CellTiter-Glo), Ba/F3 c-KIT exon 11/N822K; details: Mus musculus, BaF3, 72 h, dose range 0.6 to 10,000 nM, mean of at least three experiments, read-out: IC50 of cell proliferation inhibition, Exon 11/Gleevec-resistant Double Mutant N822K
Experimental: as §1, §2, §3

[5] = test system: Ba/F3 cells expressing c-KIT Exon 11/Y823D Gleevec-resistant double mutant; experiment: Cell proliferation assay (CellTiter-Glo), Ba/F3 c-KIT exon 11/Y823D; details: Mus musculus, BaF3, 72 h, dose range 0.6 to 10,000 nM, mean of at least three experiments, read-out: IC50 of cell proliferation inhibition, Exon 11/Gleevec-resistant Double Mutant Y823D
Experimental: as §1, §2, §3

[6] = test system: c-KIT-expressing Ba/F3 cell lines, Gleevec-resistant double mutants versus Exon 11 mutant; experiment: Potency shift caused by c-KIT resistance mutations (summary of Table 2); details: double mutants relative to Exon 11 mutant, from Table 2
Experimental: as §1, §2, §3

Q: For `CNC(=O)c1cc(Oc2ccc(NC(=O)Nc3ccc(Cl)c(C(F)(F)F)c3)cc2)ccn1` [BAY 43-9006, N-[4-chloro-3-(trifluoromethyl)phenyl]-N′-{4-[2-carbamoyl-1-oxo-(4-pyridyloxy)]phenyl} urea], which IC50 [1] is on record?
A: 3 nM

Q: What about the IC50 [2] of the same molecule?
A: 46 nM

Q: What about the IC50 [3] of the same molecule?
A: 8 nM

Q: And the IC50 [4]?
A: 17 nM

Q: What about the IC50 [5] of the same molecule?
A: 36 nM

Q: What about the “decrease of drug potency caused by c-KIT resistance mutations” value [6] of the same molecule?
A: no more than 15 fold
